Assay results reported in PubChem BioAssay AID330 (DTP/NCI, 2004).
Inconclusive results and toxic doses are left out. Rule for the calls: active = survival T/C of 150% or more; inactive = T/C below 125% in these data.

Tested on: P388 leukemia ip, CD2F1 mice, survival T/C
Experiment: NCI In Vivo Anticancer Drug Screen. Data for tumor model P388 Leukemia (intraperitoneal) in CD2F1 (CDF1) mice
Conditions: endpoint: median survival time, higher = longer survival
Procedure, shortened: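 Mice carrying the transplanted tumor received test compound or vehicle. Survival was recorded in each group, and the value is the treated-group measurement divided by that of the vehicle-treated control group.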

Measured: T/C

CC(=O)OCC1=CC2OC(=O)C3=COC(OC4OC(CO)C(O)C(O)C4O)C1C32 (centres undefined)
inactive: dose: 12.5 mg/kg/injection, schedule: Q01DX009 (ip), vehicle: saline 93 % of control | dose: 25.0 mg/kg/injection, schedule: Q01DX009 (ip), vehicle: Klucel (hydroxypropylcellulose) (HPC) 88 % of control | dose: 25.0 mg/kg/injection, schedule: Q01DX009 (ip), vehicle: saline 98 % of control | dose: 50.0 mg/kg/injection, schedule: Q01DX009 (ip), vehicle: Klucel (hydroxypropylcellulose) (HPC) 88 % of control | dose: 50.0 mg/kg/injection, schedule: Q01DX009 (ip), vehicle: saline 98 % of control | dose: 50.0 mg/kg/injection, schedule: Q04DX002 (ip), vehicle: saline 107 % of control | dose: 100.0 mg/kg/injection, schedule: Q01DX009 (ip), vehicle: Klucel (hydroxypropylcellulose) (HPC) 89 % of control | dose: 100.0 mg/kg/injection, schedule: Q04DX002 (ip), vehicle: saline 101 % of control | dose: 200.0 mg/kg/injection, schedule: Q04DX002 (ip), vehicle: saline 99 % of control
